Experimental data taken from patent publication US20200368280A1, “EPIGENETIC MODIFIERS FOR USE IN CELLULAR IMMUNOTHERAPY” (Viracta Therapeutics, Inc., priority 2018, published 2020).
Like-named read-outs stand apart in the source and are kept apart here.

Tests used:
[1] = tested on: BALB/c splenocytes (FoxP3+, CD25+ T regulatory cells); assay: FACS analysis of splenocytes treated 24 hours with HDAC inhibitor; type: cell-based, BALB/c mice
Procedure: Test agents were added to each plate at the concentrations indicated in the table below and were incubated for 24 hours prior to FACS analysis. FACS analysis consisted of the following markers: live/dead, CD45, CD3, CD4, CD25 and FoxP3.

CT26 subcutaneous tumor = type: in vivo; details: nanatinostat 25 mg/kg orally daily, anti-mPD-1 10 mg/kg intraperitoneally
Procedure: (§1) Nanatinostat alone and in combination with anti-mPD-1 was evaluated in the CT26 subcutaneous tumor model in Balb/c mice. Animals were dosed orally with nanatinostat at 25 mg/kg daily, and intraperitoneally with anti-mPD-1 at 10 mg/kg on a bi-weekly schedule. 8 animals per group were selected and tumors were collected for FACS and qPCR analysis on Day 9, 12-13 hours post dose. The remaining animals continued to receive their respective treatments until Day 21.
144 female Balb/c mice (date of birth: Aug. 1, 2017) purchased from Jackson Laboratories were inoculated for the study. Animals were housed for a stabilization period of 5 days prior to inoculation. Animals were housed in individual HEPA ventilated cages (Innocage® IVC, Innovive USA). Fluorescent lighting was provided on a 12-hour cycle. Temperature and humidity was monitored and recorded daily and maintained to the maximum extent possible between 68-74° F. (20-23° C.) and 30-70% humidity, respectively. 2920X.10 18% soy irradiated rodent feed (Envigo) and autoclaved acidified water (pH2.5-3) was provided ad libitum.
CT26 cells were cultured as per ATCC's recommended culture protocol. For inoculation, cells were washed in PBS, counted, and resuspended in cold PBS at a concentration of 250,000 viable cells/100 μl. Cell suspension was kept on ice during transport to the vivarium. Cells were prepared for injections by withdrawing cells into a chilled 1 ml syringe fitted with a 26G 7/8 (0.5 mm×22 mm) needle.
Animals were prepared as needed for injection using standard approved anesthesia, and the mice were shaved prior to injection. One mouse at a time was immobilized and the site of injection was disinfected with an alcohol swab. 100 μl of the cell suspension was subcutaneously injected into the rear flank of the mouse. Mice were marked by ear tagging.
Animals were monitored daily for palpable tumors, or any changes in appearance or behavior. Once tumors were palpable, they were measured using calipers. Tumor volume was calculated using the following equation (longest diameter×shortest diameter^2)/2.

T cells in CT26 tumors = assay: FACS analysis of CT26 tumors on Day 9; type: in vivo, Balb/c mice
Procedure: as §1
On Day 9, N=8/arm were harvested tumors for PD assessment 12-13 hours post last dose. Half of each tumor was placed in transfer buffer for FACS analysis.

[2] = tested on: gene expression in CT26 tumors; assay: qPCR gene expression analysis of CT26 tumors on Day 9; type: in vivo, Balb/c mice; details: Day 9, tumors
Procedure: as §1
On Day 9, N=8/arm was harvested tumors for PD assessment. Half of each tumor was flash frozen for subsequent qPCR analysis. Fragments of flash frozen tumors were transferred in RLT PLUS buffer (Qiagen) and loaded into labelled and prefilled tubes with beads and homogenized for 60 seconds at maximum speed. RNA was extracted with AllPrep DNA/RNA Mini kit, purchased from Qiagen, according to the manufacturer's protocol. RNA quantity and purity was evaluated by Synergy 2 Multi-Mode Reader according to the Biotec Protocol. 750 ng total RNA from each sample was used to generate cDNA in a 20 μl reaction. The reaction was performed to the standard of Superscript III First-Strand Synthesis protocol by ThermoFisher by using Eppendorf Mastercycler Pro. […] Gene expression data was analyzed on the ViiA7 system using ABI 2.1 software to generate the raw data. […]

[3] = tested on: exhausted T cell population (CD8+ T cells) from PBMC; assay: T cell exhaustion assay, CEFT-exhausted PBMC restimulated with DC and CEFT; type: cell-based, human; details: for IFN-γ release by restimulated CD8+ T cells (percent IFNγ secreting CD8+ cells, FIG. 11) / CD8+ T cell proliferation (FIG. 9B, 9C): restimulated with CEFT; for CD8+ T cell proliferation (FIG. 9B, 9C): compared to CEFT alone
Procedure: FIGS. 12A, 12B and 12C show the effects of anti-PD-1 and nanatinostat treatment on IFN-γ, TNFα, and TGFβ. Isolated PBMC were exhausted with CEFT-stimulation for 10 days prior to being restimulated with moDC and CEFT peptide with compound treatment for an additional 4 days. Luminex analysis was performed and levels of IFN-γ (FIG. 12A), TNFα (FIG. 12B), and TGFβ (FIG. 12C). Dotted lines denote anti-PD-1 control treatment and vehicle control treatment as indicated.
To test whether nanatinostat can be used to reverse T cell exhaustion, whether by itself or in combination with PD-1, a standard T cell exhaustion assay was used. Peripheral Blood Mononuclear Cells (PBMC) were separated over a density gradient from 3 single human donor buffy coats. PBMC were stimulated with pooled pathogen-specific class I peptides (CEFT) to generate an exhausted T cell population. Cells were then re-stimulated with CEFT and autologous monocyte-derived dendritic cells for a further time before testing in a final re-stimulation assay using replenished DC and CEFT to monitor reversal of exhaustion. […] One dose of HDAC inhibitor was tested and a single dose of anti-PD-1 was used. An unstimulated control and a reference HDAC inhibitor were also plated. Cultures were pulsed with 3H-thymidine and proliferation assessed. Supernatants were also harvested for cytokine analysis by multiplex. Samples of cells were stained with an antibody panel directed against CD4, CD8, PD-1, IL-15R, TIGIT, CD45RO, CCR7, IFNγ and CD25 and characterized using flow cytometry in order to confirm their exhausted phenotype, and whether expression levels were altered following exposure to the combination therapies. PBMC were also phenotyped using the above panel at day 0 to determine the initial frequency of cell populations.

[4] = 100 nM, 24 hours, percentage ± SD
[5] = 1 uM, 24 hours, percentage ± SD
[6] = listed as head prints 'nM' (1 nM), 24 hours, percentage ± SD
[7] = combination vs anti PD-1 only, nanatinostat only vs vehicle

O=C(NO)c1cnc(N2CC3C(C2)C3NCc2ccc3cc(F)ccc3n2)nc1 (centres unmarked) [Nanatinostat, 2-(6-{[(6-Fluoroquinolin-2-yl)methyl]amino}-3-azabicyclo[3.1.0]hex-3-yl)-N-hydroxypyrimidine-5-carboxamide]
CD45+ [1, 4]: 99.6 ± 0.12%
CD45+ CD3+ [1, 4]: 94 ± 0.83%
CD45+ ([1]; 500 nM, 24 hours, percentage ± SD): 99.5 ± 0.29%
CD45+ [1, 5]: 99.6 ± 0.17%
concentration at which the suppressive effect on FoxP3, CD25+ T cells was still seen ([1]; at least as low as): ≤ 100 nM
CD45+ [1, 6]: 98.6 ± 0.36%
CD45+ CD3+ CD4+ FoxP3+ [1, 6]: 12 ± 1.51%
inhibition of tumor growth (CT26 subcutaneous tumor; Day 3): 16.20%
inhibition of tumor growth (CT26 subcutaneous tumor; Day 4): 23.31%
inhibition of tumor growth (CT26 subcutaneous tumor; Day 7): 38.94%
inhibition of tumor growth (CT26 subcutaneous tumor; Day 9): 33.81%
inhibition of tumor growth (CT26 subcutaneous tumor; Day 9, listed as nanatinostat): 33%
CXCR3 expressing cell population in CD4+ T cells in tumors (FIG. 5A) (T cells in CT26 tumors; [7]): no significant difference
CXCR3 expressing cell population in CD8+ T cells in tumors (FIG. 5B) (T cells in CT26 tumors; [7]): no significant difference
CD8+ T-cell population in tumors (T cells in CT26 tumors; compared to the vehicle group): higher
T cell infiltration in tumors (FIG. 4) (T cells in CT26 tumors; compared to vehicle or anti-PD-1 group, p-value 0.007 for both): significantly increased
KLRC2 expression on NK cells (FIG. 8) [2]: increased
cell viability (FIG. 10A, 10B) ([3]; compared to Entinostat): well tolerated
IFN-γ release by restimulated CD8+ T cells (percent IFNγ secreting CD8+ cells, FIG. 11) [3]: little effect
CD8+ T cell proliferation (FIG. 9B, 9C) [3]: negative effect

Nc1ccccc1NC(=O)c1ccc(CNC(=O)OCc2cccnc2)cc1 [Entinostat, reference compound]
CD45+ [1, 5]: 99.1 ± 0.27%
IFN-γ release by restimulated CD8+ T cells (percent IFNγ secreting CD8+ cells, FIG. 11) [3]: reduced

anti-PD-1 (Pembrolizumab): anti-PD-1 antibody used in the human T cell exhaustion assay [reference compound]
CD8+ T cell proliferation (FIG. 9B, 9C) [3]: restored proliferation
